# Experimental data reported in ChEMBL document CHEMBL1201862, “PubChem BioAssay data set” (2004).
# Calls of active or inactive are those of the source.
# What was measured:
# [1] = target: T1, E3 ubiquitin-protein ligase XIAP (Homo sapiens, UniProt P98170); experiment: XIAP antagonists, biochemical, IAP family, fluorescence polarization (AID 1018); type: functional
# [2] = target: T1, E3 ubiquitin-protein ligase XIAP; experiment: Counter Screen using XIAP-Bir3 for Chemical Antagonists of Bir1/2 domains of IAP-family anti-apoptotic proteins. [Related pubchem assays (depositor defined):AID1018, AID1449, AID1514, AID1638, AID1749, AID1750, AID488957, AID488963]
# Cytochrome P450 2C9 = Cytochrome P450 2C9 (Homo sapiens, UniProt P11712)
# SUMO-activating enzyme = SUMO-activating enzyme (Homo sapiens, UniProt Q9UBT2); experiment: SUMOylation inhibitor hit validation, confirmation, SUMOylation inhibitor project, biochemical, AlphaScreen (AID 2018); type: functional
# Cytochrome P450 2C19 = Cytochrome P450 2C19 (Homo sapiens, UniProt P33261); experiment: Cytochrome panel assay with activity outcomes. Panel member name: p450-cyp2c19 Compounds with AC50 equal or less than 10 uM are considered active; type: functional; settings: read-out: AC50
# [3] = target: T2, Microphthalmia-associated transcription factor (Homo sapiens, UniProt O75030); experiment: TRPM1 promoter luciferase signal decrease, dose response, MITF inhibitor project, cell-based, SK-MEL-5, cherry-picked, set 3 (AID 493073); type: functional
# T2 sequence (O75030 whole entry): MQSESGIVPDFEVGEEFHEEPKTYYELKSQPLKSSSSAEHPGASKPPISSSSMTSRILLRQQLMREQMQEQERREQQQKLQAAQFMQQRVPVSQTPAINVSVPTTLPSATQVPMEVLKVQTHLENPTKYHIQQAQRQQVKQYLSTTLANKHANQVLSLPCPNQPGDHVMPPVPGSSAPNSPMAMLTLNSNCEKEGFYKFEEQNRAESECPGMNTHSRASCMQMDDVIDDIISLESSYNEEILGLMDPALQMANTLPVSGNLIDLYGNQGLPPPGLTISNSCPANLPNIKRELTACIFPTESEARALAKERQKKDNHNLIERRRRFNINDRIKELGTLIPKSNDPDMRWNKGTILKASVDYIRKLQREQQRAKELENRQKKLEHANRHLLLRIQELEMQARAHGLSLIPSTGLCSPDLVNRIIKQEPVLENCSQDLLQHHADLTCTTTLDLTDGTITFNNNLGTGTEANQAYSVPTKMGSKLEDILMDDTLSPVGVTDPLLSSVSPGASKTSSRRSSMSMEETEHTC
# INS1 = experiment: beta cell apoptosis inhibitors, cytokine rescue, dose response, luminescence, retest (AID 449756); type: functional, cell-based; settings: Rattus norvegicus;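 also: cell death triggered by IL-1 beta plus TNF-alpha plus IFN-gamma mixture; protective hits raise ATP signal compared with cytokine alone wells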
# Vero = experiment: cells; type: functional; settings: Chlorocebus sabaeus
# [4] = NIH-3T3 fibroblast cytotoxicity, dose response, cytotoxicity control, cell-based, fluorescence, Alamar Blue, secondary assay (AID 2327); type: functional;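 also: NIH-3T3 mouse fibroblasts cultured with fluconazole at 8 µg/mL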
# [5] = C. albicans growth with fluconazole, confirmation, fluorescence, retest (AID 2467); type: functional, cell-based
# Protein Wnt-3a = Protein Wnt-3a (Mus musculus, UniProt P27467); experiment: Wnt3a-driven reporter signaling inhibition, dose response, selectivity assay for Gli-SUFU antagonist project, Wnt-LIGHT cells, luminescence (AID 651570); type: functional; settings: read-out: IC50_Mean;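 also: Wnt-LIGHT reporter cells stimulated with conditioned medium from Wnt3a-producing cells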
# [6] = target: DNA dC->dU-editing enzyme APOBEC-3G (Homo sapiens, UniProt Q9HC16); type: functional;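 also: Dose-response counterscreen measuring inhibition of APOBEC3G DNA deaminase activity, run while confirming APOBEC3A inhibitors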
# [7] = target: DNA dC->dU-editing enzyme APOBEC-3A (Homo sapiens, UniProt P31941); experiment: Dose Response confirmation of small molecule APOBEC3A DNA Deaminase Inhibitors via a fluorescence-based single-stranded DNA deaminase assay. [Related pubchem assays (depositor defined):AID493011, AID493024]; type: functional
# [8] = target: T3, Carboxy-terminal domain RNA polymerase II polypeptide A small phosphatase 1 (Homo sapiens, UniProt Q9GZU7); experiment: inhibitors of CTDSP1, concentration-response testing, biochemical assay, absorbance-based, actives from ultra-high-throughput screening (AID 540297); type: functional
# T3 sequence (Q9GZU7 whole entry): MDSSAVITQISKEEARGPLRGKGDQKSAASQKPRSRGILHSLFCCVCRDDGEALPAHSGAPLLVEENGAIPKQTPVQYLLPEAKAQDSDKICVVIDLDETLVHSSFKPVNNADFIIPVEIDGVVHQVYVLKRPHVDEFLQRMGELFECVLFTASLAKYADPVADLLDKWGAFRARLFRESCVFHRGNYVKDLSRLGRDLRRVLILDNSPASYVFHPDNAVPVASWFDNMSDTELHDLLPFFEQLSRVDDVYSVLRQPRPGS
# Cytochrome P450 1A2 = target: T4, Cytochrome P450 1A2 (Homo sapiens, UniProt P05177);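 also: PubChem cytochrome P450 panel assay, CYP1A2 panel member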
# T4 sequence (P05177 whole entry): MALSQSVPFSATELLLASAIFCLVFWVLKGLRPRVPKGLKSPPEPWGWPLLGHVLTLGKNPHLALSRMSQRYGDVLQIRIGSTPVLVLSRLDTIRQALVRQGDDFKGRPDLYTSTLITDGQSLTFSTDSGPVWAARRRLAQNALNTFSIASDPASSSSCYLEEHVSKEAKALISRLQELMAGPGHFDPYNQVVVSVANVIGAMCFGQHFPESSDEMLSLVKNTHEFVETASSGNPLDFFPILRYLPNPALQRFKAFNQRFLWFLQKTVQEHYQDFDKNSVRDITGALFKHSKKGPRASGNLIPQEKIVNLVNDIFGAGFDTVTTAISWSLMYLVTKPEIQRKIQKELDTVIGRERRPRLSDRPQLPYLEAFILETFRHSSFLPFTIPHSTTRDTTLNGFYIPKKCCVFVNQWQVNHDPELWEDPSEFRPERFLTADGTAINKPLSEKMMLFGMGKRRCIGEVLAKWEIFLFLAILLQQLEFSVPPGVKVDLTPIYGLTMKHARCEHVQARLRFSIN
# [9] = target: DNA damage-inducible transcript 3 protein (Mus musculus, UniProt P35639); type: functional, Cricetulus griseus
# [10] = cytotoxicity toward NIH3T3 fibroblasts, dose response, counter-screen, cell-based, ATP luminescence, mouse fibroblasts (AID 2010); type: functional;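 also: cells exposed to compound for about 90 hours before reading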
# [11] = inhibitors of intracellular T. cruzi replication, confirmation, NIH3T3 host cells, beta-gal luminescence (AID 2044); type: functional, cell-based;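 also: intracellular parasites grown in NIH/3T3 mouse fibroblasts as host cells; luminescent beta-galactosidase reporter signal from transgenic T. cruzi replicating inside host cells; inhibitors lower the luminescence signal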
# [12] = target: T5, Short transient receptor potential channel 4 (Mus musculus, UniProt Q9QUQ5); experiment: TRPC4 positive allosteric modulators, dose response, cell-based, HEK293 TRPC4/mu-opioid, Fluo-4 calcium, EC20 DAMGO (AID 434941); type: functional
# T5 sequence (Q9QUQ5 whole entry): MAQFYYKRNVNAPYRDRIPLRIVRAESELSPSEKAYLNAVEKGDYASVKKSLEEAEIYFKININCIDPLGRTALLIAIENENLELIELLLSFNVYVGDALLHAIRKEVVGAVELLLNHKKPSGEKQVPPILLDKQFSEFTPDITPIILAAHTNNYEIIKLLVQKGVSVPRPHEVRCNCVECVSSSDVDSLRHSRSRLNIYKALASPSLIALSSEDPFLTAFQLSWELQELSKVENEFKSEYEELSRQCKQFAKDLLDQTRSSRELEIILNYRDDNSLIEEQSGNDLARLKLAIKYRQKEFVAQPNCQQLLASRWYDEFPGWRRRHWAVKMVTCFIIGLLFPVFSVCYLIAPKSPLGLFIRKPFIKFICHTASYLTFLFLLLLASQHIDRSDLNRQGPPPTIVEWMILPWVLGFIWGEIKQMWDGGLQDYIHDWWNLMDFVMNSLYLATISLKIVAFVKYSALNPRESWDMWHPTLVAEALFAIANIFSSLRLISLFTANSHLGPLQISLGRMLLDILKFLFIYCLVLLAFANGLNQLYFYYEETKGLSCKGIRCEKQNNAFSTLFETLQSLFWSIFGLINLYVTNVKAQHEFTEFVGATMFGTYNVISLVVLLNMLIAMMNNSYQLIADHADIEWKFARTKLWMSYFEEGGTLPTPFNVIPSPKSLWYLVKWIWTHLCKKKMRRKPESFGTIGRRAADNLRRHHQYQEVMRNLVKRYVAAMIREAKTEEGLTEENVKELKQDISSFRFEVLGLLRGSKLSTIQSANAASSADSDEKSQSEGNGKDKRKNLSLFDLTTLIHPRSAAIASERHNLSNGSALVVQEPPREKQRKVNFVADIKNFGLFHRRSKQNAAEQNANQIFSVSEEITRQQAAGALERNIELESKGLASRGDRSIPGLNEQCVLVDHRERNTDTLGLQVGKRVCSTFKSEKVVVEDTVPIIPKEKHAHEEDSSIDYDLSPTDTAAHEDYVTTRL
# Trypsin = Trypsin (Sus scrofa, UniProt P00761); experiment: porcine trypsin inhibitors, dose response, selectivity assay for Rce1 protease inhibitor project, biochemical, quenched peptide fluorescence, cherry-pick (AID 488789)
# CAAX prenyl protease 2 = target: T6, CAAX prenyl protease 2 (Saccharomyces cerevisiae S288c, UniProt Q03530); type: biochemical
# T6 sequence (Q03530 whole entry): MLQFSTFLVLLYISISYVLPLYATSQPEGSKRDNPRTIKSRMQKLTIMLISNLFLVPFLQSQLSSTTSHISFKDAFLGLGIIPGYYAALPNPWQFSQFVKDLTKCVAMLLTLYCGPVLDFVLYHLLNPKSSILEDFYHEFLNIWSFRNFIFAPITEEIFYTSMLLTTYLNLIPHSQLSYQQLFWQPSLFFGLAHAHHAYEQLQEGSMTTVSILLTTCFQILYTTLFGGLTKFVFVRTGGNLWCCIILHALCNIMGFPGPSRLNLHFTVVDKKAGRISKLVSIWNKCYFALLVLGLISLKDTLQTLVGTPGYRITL
# HEK293 [13] = experiment: NOD2 signaling inhibitors in MDP-stimulated cells, cell-based, uHTS, luminescence (AID 2001); type: functional; settings: Homo sapiens
# HEK293 [14] = experiment: NOD1 signaling inhibitors, primary screen, cell-based, luminescence, uHTS (AID 1578); type: functional; settings: Homo sapiens
# HEK293 [15] = experiment: cells; type: functional, cell-based; settings: Homo sapiens
# HEK293 [16] = experiment: cells; type: functional, cell-based; settings: Homo sapiens; remark: listed apart in the source
# [17] = target: T5, Short transient receptor potential channel 4; experiment: mouse TRPC4 channel activators, dose response, cell-based, HEK293 TRPC4/mu-opioid, Fluo-4 calcium (AID 434937); type: functional
# T1 sequence (P98170 whole entry): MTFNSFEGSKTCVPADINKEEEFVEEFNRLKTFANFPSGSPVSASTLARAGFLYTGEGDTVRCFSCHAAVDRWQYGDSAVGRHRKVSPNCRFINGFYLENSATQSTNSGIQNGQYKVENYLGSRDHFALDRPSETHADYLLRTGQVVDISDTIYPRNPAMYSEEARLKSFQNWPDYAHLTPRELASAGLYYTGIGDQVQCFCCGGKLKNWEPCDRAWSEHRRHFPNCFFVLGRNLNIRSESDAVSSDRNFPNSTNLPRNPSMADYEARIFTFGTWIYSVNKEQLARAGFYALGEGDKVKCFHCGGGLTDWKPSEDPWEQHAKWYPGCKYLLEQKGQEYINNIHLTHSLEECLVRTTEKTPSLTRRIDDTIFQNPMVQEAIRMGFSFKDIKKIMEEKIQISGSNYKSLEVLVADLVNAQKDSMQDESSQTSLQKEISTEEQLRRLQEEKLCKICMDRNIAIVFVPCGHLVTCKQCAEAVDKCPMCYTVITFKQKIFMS
# Chain of SUMO-activating enzyme (Q9UBE0 whole entry): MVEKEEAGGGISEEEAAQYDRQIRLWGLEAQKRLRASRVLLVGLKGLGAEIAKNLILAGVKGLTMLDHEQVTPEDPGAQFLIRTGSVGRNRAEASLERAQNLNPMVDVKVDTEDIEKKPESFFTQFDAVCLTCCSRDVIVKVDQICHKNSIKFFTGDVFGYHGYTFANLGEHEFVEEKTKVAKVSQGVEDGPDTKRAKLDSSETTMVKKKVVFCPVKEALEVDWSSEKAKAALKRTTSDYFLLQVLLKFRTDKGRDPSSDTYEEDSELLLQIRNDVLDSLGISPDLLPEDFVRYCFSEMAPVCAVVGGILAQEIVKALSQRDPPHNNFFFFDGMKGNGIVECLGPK
# Chain of SUMO-activating enzyme (Q9UBT2 whole entry): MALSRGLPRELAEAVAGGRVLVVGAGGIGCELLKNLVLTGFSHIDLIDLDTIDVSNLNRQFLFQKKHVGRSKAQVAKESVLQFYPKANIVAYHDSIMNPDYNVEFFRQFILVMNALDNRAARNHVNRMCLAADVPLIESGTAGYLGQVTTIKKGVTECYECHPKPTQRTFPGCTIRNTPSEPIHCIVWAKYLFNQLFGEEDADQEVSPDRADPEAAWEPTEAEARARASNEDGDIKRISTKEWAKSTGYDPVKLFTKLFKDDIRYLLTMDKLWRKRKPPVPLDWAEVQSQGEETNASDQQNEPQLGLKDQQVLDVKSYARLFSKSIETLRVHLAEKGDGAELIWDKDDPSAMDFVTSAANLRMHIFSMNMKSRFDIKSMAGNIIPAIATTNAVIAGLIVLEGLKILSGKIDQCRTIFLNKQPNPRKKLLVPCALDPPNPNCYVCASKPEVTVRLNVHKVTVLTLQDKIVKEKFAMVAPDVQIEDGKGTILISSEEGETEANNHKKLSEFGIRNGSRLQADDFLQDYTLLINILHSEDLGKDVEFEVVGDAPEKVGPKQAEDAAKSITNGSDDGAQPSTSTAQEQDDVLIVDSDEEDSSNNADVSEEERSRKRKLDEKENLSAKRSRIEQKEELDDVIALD
# Chain of DNA damage-inducible transcript 3 protein (P35639 whole entry): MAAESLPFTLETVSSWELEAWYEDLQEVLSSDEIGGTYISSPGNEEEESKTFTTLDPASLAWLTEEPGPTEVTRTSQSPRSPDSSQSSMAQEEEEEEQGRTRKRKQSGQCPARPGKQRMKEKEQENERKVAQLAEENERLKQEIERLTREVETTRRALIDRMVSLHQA
# Chain of DNA dC->dU-editing enzyme APOBEC-3A (P31941 whole entry, the tested form may be a part): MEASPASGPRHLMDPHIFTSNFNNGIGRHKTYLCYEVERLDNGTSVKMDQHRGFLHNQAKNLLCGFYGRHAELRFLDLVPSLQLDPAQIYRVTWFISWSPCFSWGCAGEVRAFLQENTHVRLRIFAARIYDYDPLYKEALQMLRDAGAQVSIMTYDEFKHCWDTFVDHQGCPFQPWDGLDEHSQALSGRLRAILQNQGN
# Chain of Cytochrome P450 2C9 (P11712 whole entry): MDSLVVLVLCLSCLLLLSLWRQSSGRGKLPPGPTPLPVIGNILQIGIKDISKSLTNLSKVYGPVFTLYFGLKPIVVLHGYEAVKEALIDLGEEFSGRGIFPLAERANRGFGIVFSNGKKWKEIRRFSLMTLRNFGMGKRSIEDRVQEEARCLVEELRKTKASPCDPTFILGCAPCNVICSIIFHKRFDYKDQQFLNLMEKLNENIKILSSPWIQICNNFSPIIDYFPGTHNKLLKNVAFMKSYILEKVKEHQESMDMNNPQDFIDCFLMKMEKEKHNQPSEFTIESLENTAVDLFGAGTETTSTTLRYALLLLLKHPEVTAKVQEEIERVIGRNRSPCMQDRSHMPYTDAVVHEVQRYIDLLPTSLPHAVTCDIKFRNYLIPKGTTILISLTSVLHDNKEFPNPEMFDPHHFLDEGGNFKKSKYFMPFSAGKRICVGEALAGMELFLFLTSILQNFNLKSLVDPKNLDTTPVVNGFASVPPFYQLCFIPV
# Chain of DNA dC->dU-editing enzyme APOBEC-3G (Q9HC16 whole entry): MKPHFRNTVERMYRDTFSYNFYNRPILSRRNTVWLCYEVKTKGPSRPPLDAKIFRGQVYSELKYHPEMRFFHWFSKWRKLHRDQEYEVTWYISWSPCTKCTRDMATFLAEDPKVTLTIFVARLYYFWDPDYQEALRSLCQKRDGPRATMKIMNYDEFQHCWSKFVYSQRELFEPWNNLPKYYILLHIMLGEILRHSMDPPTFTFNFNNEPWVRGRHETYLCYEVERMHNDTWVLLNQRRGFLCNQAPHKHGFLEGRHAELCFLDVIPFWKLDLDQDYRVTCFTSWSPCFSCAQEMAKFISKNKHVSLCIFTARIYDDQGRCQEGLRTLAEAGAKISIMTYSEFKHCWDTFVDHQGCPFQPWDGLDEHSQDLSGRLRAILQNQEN
# Chain of Protein Wnt-3a (P27467 whole entry): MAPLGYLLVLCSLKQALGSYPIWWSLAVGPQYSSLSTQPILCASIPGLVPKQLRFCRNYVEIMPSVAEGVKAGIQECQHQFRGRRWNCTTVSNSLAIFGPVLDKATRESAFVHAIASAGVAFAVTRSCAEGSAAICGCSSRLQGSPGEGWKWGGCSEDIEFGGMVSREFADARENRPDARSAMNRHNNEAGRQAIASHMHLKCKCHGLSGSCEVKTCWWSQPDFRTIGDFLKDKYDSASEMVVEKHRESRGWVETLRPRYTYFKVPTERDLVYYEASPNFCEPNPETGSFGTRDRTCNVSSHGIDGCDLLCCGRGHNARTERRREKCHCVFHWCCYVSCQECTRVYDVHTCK
# Chain of Cytochrome P450 2C19 (P33261 whole entry): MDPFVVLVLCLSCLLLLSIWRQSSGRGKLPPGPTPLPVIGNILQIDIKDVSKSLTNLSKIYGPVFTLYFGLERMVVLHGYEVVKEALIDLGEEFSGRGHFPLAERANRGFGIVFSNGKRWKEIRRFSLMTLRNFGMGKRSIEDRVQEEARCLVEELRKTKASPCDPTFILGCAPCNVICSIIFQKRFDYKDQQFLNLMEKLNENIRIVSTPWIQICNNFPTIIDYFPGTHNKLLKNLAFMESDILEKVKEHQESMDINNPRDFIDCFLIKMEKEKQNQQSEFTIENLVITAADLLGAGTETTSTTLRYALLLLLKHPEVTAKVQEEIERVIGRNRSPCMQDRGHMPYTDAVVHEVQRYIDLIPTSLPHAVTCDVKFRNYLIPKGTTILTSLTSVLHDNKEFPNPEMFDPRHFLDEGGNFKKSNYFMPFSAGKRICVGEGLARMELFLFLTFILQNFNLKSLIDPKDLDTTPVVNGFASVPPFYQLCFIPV
# Chain of Trypsin (P00761 whole entry): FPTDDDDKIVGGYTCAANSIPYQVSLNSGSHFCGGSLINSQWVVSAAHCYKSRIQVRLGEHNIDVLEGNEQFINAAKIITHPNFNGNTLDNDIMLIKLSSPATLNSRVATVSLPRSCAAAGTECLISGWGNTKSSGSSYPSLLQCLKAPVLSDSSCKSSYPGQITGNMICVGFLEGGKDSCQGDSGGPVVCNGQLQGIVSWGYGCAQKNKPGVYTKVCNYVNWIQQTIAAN
compound,measurement,setting,value
CCN(CC)c1ccc(S(=O)(=O)N2CCOCC2)cc1NC(=O)CSc1cccc[n+]1[O-],IC50,[1],> 100 µM (not active)
same,IC50,[2],> 100 µM (inactive)
O=C(NNC(=O)c1sc2ccccc2c1Cl)Nc1ccc(Cl)cc1,AC50,Cytochrome P450 2C9,inconclusive
same,IC50,SUMO-activating enzyme,25.8 µM (active)
same,AC50,Cytochrome P450 2C19,3.55 µM (inconclusive)
CCOc1ccc(N2C(=O)/C(=C\NNc3nc(C)cc(C)n3)c3ccccc3C2=O)cc1,AC50,[3],3.48 µM (active)
same,AC50,INS1,2.24 µM (active)
same,CC50,Vero,10.3 µM (active)
same,EC50,[4],47.9 µM (active)
same,EC50,[5],> 38 µM (not active)
same,IC50,Protein Wnt-3a,11.2 µM (active)
CCOc1ccc(OCCCC(=O)N2CCN(S(=O)(=O)c3ccc(Cl)cc3)CC2)cc1,IC50,[6],2.23 µM (active)
same,IC50,[7],2.04 µM (active)
same,IC50,[8],6.6 µM (active)
C[C@@]12CC[C@@H]3c4ccc(O)cc4CC[C@H]3[C@H]1CC[C@H]2O,AC50,Cytochrome P450 2C9,inconclusive
same,AC50,Cytochrome P450 1A2,5.01 µM (inconclusive)
O=C(NNC(=O)c1cccc2ccccc12)c1ccc(-c2ccccc2)cc1,Absolute IC50 (CHOP),[9],10 µM
Nc1c(C(=O)NCc2ccco2)c2nc3ccccc3nc2n1CCc1ccc(F)cc1,IC50,SUMO-activating enzyme,34.7 µM (active)
C[C@@H]1CC2(CCCC[N+]2(C)C)C[C@H]1C,IC50,[6],3.7 µM (active)
same,IC50,[7],1.61 µM (active)
COc1ccccc1-c1nnc(NC(=O)c2ccc(S(=O)(=O)N(C)Cc3ccccc3)cc2)o1,Absolute IC50 (CHOP),[9],10 µM
Nc1c(NC2CCCCC2)c2ccccc2oc1=O,IC50,[1],> 100 µM (not active)
same,IC50,[2],> 100 µM (inactive)
O=[N+]([O-])c1ccc(/C=N/Nc2nc(N3CCCCC3)nc(N3CCCCC3)n2)o1,EC50,[10],> 60 µM (inconclusive)
same,EC50,[11],0.225 µM (active)
same,EC50,[12],5.96 µM (active)
CCc1cc(=O)oc2c3c(cc(OCC(=O)NCCCCCC(=O)O)c12)OC(C)(C)CC3,IC50,SUMO-activating enzyme,> 100 µM (inactive)
same,AC50,Trypsin,4.32 µM (active)
same,AC50,CAAX prenyl protease 2,14 µM (active)
Cc1ccc(/C=C2\SC(=S)N(CCC(=O)NNS(=O)(=O)c3ccc(C)cc3)C2=O)cc1,IC50,[1],> 100 µM (not active)
same,IC50,[2],> 100 µM (inactive)
Cc1cccc(NC(=O)c2cccc(NS(=O)(=O)c3ccc(Cl)cc3)c2)c1,IC50,HEK293 [13],12.6 µM (inactive)
same,EC50,HEK293 [14],9.39 µM (active)
same,IC50,HEK293 [15],> 20 µM (inactive)
same,IC50,HEK293 [16],> 20 µM (inactive)
Cc1ccc(S(=O)(=O)N2CCC(N3CCN(C)CC3)CC2)cc1Cl,EC50,[12],0.94 µM (active)
Nc1cc(N2CCNCC2)ccc1[N+](=O)[O-],EC50,[17],1.19 µM (active)
same,EC50,[12],0.19 µM (active)
